Laboratory results: ChEMBL document CHEMBL1143055, “2,3,5-Substituted tetrahydrofurans as cancer chemopreventives. Part 1: synthesis and anti-cancer activities of 5-hydroxymethyl-2,3-diaryl-tetrahydro-furan-3-ols” (2007)

Legend:
[1] = tested on: MCF7; test: Antitumor activity against human MCF7 cells; format: functional
[2] = tested on: NCI/ADR-RES; test: Antitumor activity against human NCI/ADR-RES cells; format: functional
[3] = Antitumor activity against human […] cells; format: functional
[4] = Antitumor activity against human HS 578T cells; format: functional
[5] = tested on: CCRF-CEM; test: Antitumor activity against human CCRF-CEM cells; format: functional
[6] = Antitumor activity against human HL60 (TB) cells; format: functional, HL-60(TB); conditions: HL-60
[7] = tested on: K562; test: Antitumor activity against human K562 cells; format: functional
[8] = tested on: MOLT-4; test: Antitumor activity against human MOLT4 cells; format: functional
[9] = tested on: RPMI-8226; test: Antitumor activity against human RPMI8226 cells; format: functional
[10] = tested on: SR; test: Antitumor activity against human SR cells; format: functional
[11] = tested on: A549; test: Antitumor activity against human A549 cells; format: functional
[12] = tested on: EKVX; test: Antitumor activity against human EKVX cells; format: functional
[13] = tested on: HOP-62; test: Antitumor activity against human HOP62 cells; format: functional
[14] = tested on: HOP-92; test: Antitumor activity against human HOP92 cells; format: functional
[15] = tested on: NCI-H226; test: Antitumor activity against human NCI-H226 cells; format: functional
[16] = tested on: NCI-H23; test: Antitumor activity against human NCI-H23 cells; format: functional
[17] = Antitumor activity against human NCI-H322 cells; format: functional
[18] = tested on: NCI-H460; test: Antitumor activity against human NCI-H460 cells; format: functional
[19] = tested on: NCI-H522; test: Antitumor activity against human NCI-H522 cells; format: functional
[20] = tested on: COLO 205; test: Antitumor activity against human COLO205 cells; format: functional
[21] = tested on: HCC 2998; test: Antitumor activity against human HCC2998 cells; format: functional
[22] = tested on: HCT-116; test: Antitumor activity against human HCT116 cells; format: functional
[23] = tested on: HCT-15; test: Antitumor activity against human HCT15 cells; format: functional
[24] = tested on: HT-29; test: Antitumor activity against human HT29 cells; format: functional
[25] = tested on: KM12; test: Antitumor activity against human KM12 cells; format: functional
[26] = tested on: SW-620; test: Antitumor activity against human SW620 cells; format: functional
[27] = tested on: SF-268; test: Antitumor activity against human SF268 cells; format: functional
[28] = tested on: SF-295; test: Antitumor activity against human SF295 cells; format: functional
[29] = tested on: SF-539; test: Antitumor activity against human SF539 cells; format: functional
[30] = tested on: SNB-19; test: Antitumor activity against human SNB19 cells; format: functional
[31] = tested on: SNB-75; test: Antitumor activity against human SNB75 cells; format: functional
[32] = tested on: U-251; test: Antitumor activity against human U251 cells; format: functional
[33] = tested on: LOX IMVI; test: Antitumor activity against human LOX IMVI cells; format: functional
[34] = tested on: Malme-3M; test: Antitumor activity against human MALME-3M cells; format: functional
[35] = tested on: SK-MEL-28; test: Antitumor activity against human SK-MEL-28 cells; format: functional
[36] = tested on: SK-MEL-5; test: Antitumor activity against human SK-MEL-5 cells; format: functional
[37] = tested on: UACC-257; test: Antitumor activity against human UACC257 cells; format: functional
[38] = tested on: UACC-62; test: Antitumor activity against human UACC62 cells; format: functional
[39] = tested on: IGROV-1; test: Antitumor activity against human IGROV1 cells; format: functional
[40] = tested on: OVCAR-3; test: Antitumor activity against human OVCAR-3 cells; format: functional
[41] = tested on: OVCAR-4; test: Antitumor activity against human OVCAR4 cells; format: functional
[42] = tested on: OVCAR-5; test: Antitumor activity against human OVCAR5 cells; format: functional
[43] = tested on: OVCAR-8; test: Antitumor activity against human OVCAR8 cells; format: functional
[44] = tested on: SK-OV-3; test: Antitumor activity against human SK-OV-3 cells; format: functional
[45] = tested on: 786-0; test: Antitumor activity against human 786-0 cells; format: functional
[46] = tested on: A498; test: Antitumor activity against human A498 cells; format: functional
[47] = tested on: ACHN; test: Antitumor activity against human ACHN cells; format: functional
[48] = tested on: CAKI-1; test: Antitumor activity against human CAKI-1 cells; format: functional
[49] = tested on: RXF 393; test: Antitumor activity against human RXF393 cells; format: functional
[50] = tested on: SN12C; test: Antitumor activity against human SN12C cells; format: functional
[51] = tested on: TK-10; test: Antitumor activity against human TK10 cells; format: functional
[52] = tested on: UO-31; test: Antitumor activity against human UO31 cells; format: functional
[53] = tested on: PC-3; test: Antitumor activity against human PC3 cells; format: functional
[54] = tested on: DU-145; test: Antitumor activity against human DU145 cells; format: functional
[55] = tested on: MDA-MB-435; test: Antitumor activity against human MDA-MB-435 cells; format: functional
[56] = tested on: BT-549; test: Antitumor activity against human BT549 cells; format: functional
[57] = tested on: CCRF-CEM; test: Growth inhibition of huam CCRF-CEM at 1 uM; format: functional; conditions: Homo sapiens
[58] = tested on: SR; test: Growth inhibition of human SR cells at 1 uM; format: functional

COc1ccc([C@H]2O[C@@H](CO)C[C@]2(O)c2ccc(OC)cc2)cc1 (relative stereo)
GI50 [1]: > 100 µM | GI50 [2]: > 100 µM | GI50 [3]: > 100 µM | GI50 [4]: 39.8 µM | GI50 [5]: > 100 µM | GI50 [6]: 38.9 µM | GI50 [7]: > 100 µM | GI50 [8]: > 100 µM | GI50 [9]: > 100 µM | GI50 [10]: 50.1 µM | GI50 [11]: > 100 µM | GI50 [12]: > 100 µM | GI50 [13]: > 100 µM | GI50 [14]: 95.5 µM | GI50 [15]: > 100 µM | GI50 [16]: > 100 µM | GI50 [17]: > 100 µM | GI50 [18]: > 100 µM | GI50 [19]: > 100 µM | GI50 [20]: > 100 µM | GI50 [21]: > 100 µM | GI50 [22]: > 100 µM | GI50 [23]: > 100 µM | GI50 [24]: > 100 µM | GI50 [25]: > 100 µM | GI50 [26]: > 100 µM | GI50 [27]: > 100 µM | GI50 [28]: > 100 µM | GI50 [29]: > 100 µM | GI50 [30]: > 100 µM | GI50 [31]: > 100 µM | GI50 [32]: > 100 µM | GI50 [33]: > 100 µM | GI50 [34]: > 100 µM | GI50 [35]: > 100 µM | GI50 [36]: > 100 µM | GI50 [37]: > 100 µM | GI50 [38]: > 100 µM | GI50 [39]: > 100 µM | GI50 [40]: > 100 µM | GI50 [41]: > 100 µM | GI50 [42]: > 100 µM | GI50 [43]: > 100 µM | GI50 [44]: > 100 µM | GI50 [45]: > 100 µM | GI50 [46]: > 100 µM | GI50 [47]: > 100 µM | GI50 [48]: > 100 µM | GI50 [49]: 28.2 µM | GI50 [50]: > 100 µM | GI50 [51]: > 100 µM | GI50 [52]: > 100 µM | GI50 [53]: > 100 µM | GI50 [54]: > 100 µM | GI50 [55]: > 100 µM | GI50 [56]: > 100 µM | inhibition at 1 µM [57]: 46% | inhibition at 1 µM [58]: 36%

CS(=O)(=O)c1ccc([C@H]2O[C@@H](CO)C[C@]2(O)c2ccc(S(C)(=O)=O)cc2)cc1 (relative stereo)
GI50 [1]: > 100 µM | GI50 [2]: > 100 µM | GI50 [3]: > 100 µM | GI50 [4]: > 100 µM | GI50 [5]: > 100 µM | GI50 [6]: > 100 µM | GI50 [7]: > 100 µM | GI50 [8]: > 100 µM | GI50 [9]: > 100 µM | GI50 [10]: > 100 µM | GI50 [11]: > 100 µM | GI50 [12]: > 100 µM | GI50 [13]: > 100 µM | GI50 [14]: > 100 µM | GI50 [15]: > 100 µM | GI50 [16]: > 100 µM | GI50 [17]: > 100 µM | GI50 [18]: > 100 µM | GI50 [19]: > 100 µM | GI50 [20]: > 100 µM | GI50 [21]: > 100 µM | GI50 [22]: > 100 µM | GI50 [23]: > 100 µM | GI50 [24]: > 100 µM | GI50 [25]: > 100 µM | GI50 [26]: > 100 µM | GI50 [27]: > 100 µM | GI50 [28]: > 100 µM | GI50 [29]: > 100 µM | GI50 [30]: > 100 µM | GI50 [31]: > 100 µM | GI50 [32]: > 100 µM | GI50 [33]: > 100 µM | GI50 [34]: > 100 µM | GI50 [35]: > 100 µM | GI50 [36]: > 100 µM | GI50 [37]: > 100 µM | GI50 [38]: > 100 µM | GI50 [39]: > 100 µM | GI50 [40]: > 100 µM | GI50 [41]: > 100 µM | GI50 [42]: > 100 µM | GI50 [43]: > 100 µM | GI50 [44]: > 100 µM | GI50 [45]: > 100 µM | GI50 [46]: > 100 µM | GI50 [47]: > 100 µM | GI50 [48]: > 100 µM | GI50 [49]: > 100 µM | GI50 [50]: > 100 µM | GI50 [51]: > 100 µM | GI50 [52]: > 100 µM | GI50 [53]: > 100 µM | GI50 [54]: > 100 µM | GI50 [55]: > 100 µM | GI50 [56]: > 100 µM

O=c1[nH]cc(F)c(=O)[nH]1 [FLUOROURACIL]
GI50 [1]: 1.58 µM | GI50 [2]: 39.8 µM | GI50 [3]: 501 µM | GI50 [4]: 251 µM | GI50 [5]: 31.6 µM | GI50 [6]: 20 µM | GI50 [7]: 20 µM | GI50 [8]: 12.6 µM | GI50 [9]: 5.01 µM | GI50 [10]: 3.98 µM | GI50 [11]: 2 µM | GI50 [12]: 316 µM | GI50 [13]: 20 µM | GI50 [14]: 158 µM | GI50 [15]: 251 µM | GI50 [16]: 12.6 µM | GI50 [17]: 20 µM | GI50 [18]: 1 µM | GI50 [19]: 39.8 µM | GI50 [20]: 6.31 µM | GI50 [21]: 1.58 µM | GI50 [22]: 0.398 µM | GI50 [23]: 6.31 µM | GI50 [24]: 6.31 µM | GI50 [25]: 10 µM | GI50 [26]: 25.1 µM | GI50 [27]: 50.1 µM | GI50 [28]: 50.1 µM | GI50 [29]: 1.26 µM | GI50 [30]: 126 µM | GI50 [31]: 200 µM | GI50 [32]: 39.8 µM | GI50 [33]: 6.31 µM | GI50 [34]: 20 µM | GI50 [35]: 50.1 µM | GI50 [36]: 12.6 µM | GI50 [37]: 100 µM | GI50 [38]: 12.6 µM | GI50 [39]: 12.6 µM | GI50 [40]: 25.1 µM | GI50 [41]: 63.1 µM | GI50 [42]: 158 µM | GI50 [43]: 20 µM | GI50 [44]: 158 µM | GI50 [45]: 12.6 µM | GI50 [46]: 10 µM | GI50 [47]: 10 µM | GI50 [48]: 3.98 µM | GI50 [49]: 50.1 µM | GI50 [50]: 25.1 µM | GI50 [51]: 126 µM | GI50 [52]: 5.01 µM | GI50 [53]: 50.1 µM | GI50 [54]: 10 µM | GI50 [55]: 10 µM | GI50 [56]: 100 µM
